Each structure is given as a SMILES string. Structures can show the parent of a compound that is named as a salt.

This is an account of results in PMC8980233, “Differentiating the Neuropharmacological Properties of Nicotinic Acetylcholine Receptor-Activating Alkaloids” (Frontiers in Pharmacology, 2022).

Data set [1] relates to norepinephrine release from hippocampal synaptosomes. The data set is described as follows: In vitro [3H]norepinephrine release from crude hippocampal synaptosomes. It is filed as biochemical, rat. The method, then: In vitro neurotransmitter assays using crude synaptosome preparations were conducted by Gifford Biosciences Limited (Birmingham, UK) based on the previously described protocols ([Clarke and Reuben, 1996]; [Gifford et al., 2000]). In brief, male Sprague Dawley rats (200–225 g) were terminated by cervical dislocation followed by decapitation. The striatums or hippocampi were dissected and homogenized in ice-cold 0.32 M sucrose using a Dounce homogenizer. The homogenates were centrifuged at 100 x g for 5 min to pellet cell debris. The supernatants were collected and centrifuged at 17,000 x g for 10 min at 4°C to pellet crude synaptosomes. The pellets were resuspended in 5 ml Krebs buffer, pH 7.4 (in mM (pH 7.4): 120 NaCl, 3.3 KCl, 1.2 MgSO4, 1.3 CaCl2, 1.2 K2HPO4, 25 HEPES, 11 glucose, 0.01 ascorbic acid, 0.025 pargyline, and 0.1% BSA containing 2 μCi/ml [^3H]norepinephrine for hippocampal synaptosomes or 1 μCi/ml [^3H]dopamine for striatal synaptosomes and incubated for 15 min at 35°C with gentle shaking.
(§1) The [^3H]norepinephrine- or [^3H]dopamine-treated crude synaptosomes were loaded onto closed filter chambers containing Whatman® Grade GF/C Glass Microfiber filters (Sigma-Aldrich, Merck KGaA, Darmstadt, Germany) and placed in a superfusion system. Preoxygenated Krebs buffer was perfused through the chambers at a rate of 1 ml/min at 37 °C using an 8-channel peristaltic pump. To ensure an even flow over the synaptosomal bed, trapped air bubbles were removed from the filters prior to collection of the fractions. After a superfusion period of 40 min, three basal fractions (1.5 ml/fraction) were collected first, followed by three fractions (1.5 ml/fraction) containing the test compound. Two additional fractions were collected in the presence of 30 mM KCl to depolarize the synaptosomes. A 0.4-ml aliquot of each fraction was then transferred to a counting plate, and a scintillation cocktail was added to measure the radioactivity using a Wallac® TriLux 1450 MicroBeta counter (PerkinElmer Life Sciences, Zaventem, Belgium). Once all fractions were collected, the filters holding the crude synaptosome samples were removed and dried overnight at room temperature. On the following day, the scintillation cocktail was added and the filters were counted to determine residual radioactivity.
(§2) Compound-evoked release of neurotransmitters was calculated by subtracting the counts per minute (CPM) in the two basal fractions collected immediately prior to compound addition from those in the two fractions collected immediately following compound addition. The compound-evoked release was then expressed as a percentage of the basal release from that chamber. Potassium-evoked release was calculated by subtracting the CPM in the fraction immediately prior to KCl addition from the CPM in the […] immediately following potassium addition. Stimulated release was calculated as the percentage of basal release for that chamber. The increase in stimulated release above the baseline (no compound) release for that experimental run was determined, and the latter values were plotted on the graphs. Dose–response curves were determined using non-linear curve fitting in Prism (GraphPad Software, Inc, San Diego, CA, United States). All experiments were repeated at least three times.

Data set [2] deals with dopamine release from striatal synaptosomes. Put plainly: In vitro [3H]dopamine release from crude striatal synaptosomes. It is filed as biochemical, rat. The settings on record: for EC50: striatal synaptosomes. On the procedure: In brief, male Sprague Dawley rats (200–225 g) were terminated by cervical dislocation followed by decapitation. The striatums or hippocampi were dissected and homogenized in ice-cold 0.32 M sucrose using a Dounce homogenizer. The homogenates were centrifuged at 100 x g for 5 min to pellet cell debris. The supernatants were collected and centrifuged at 17,000 x g for 10 min at 4°C to pellet crude synaptosomes.
as §1, with “Preoxygenated Krebs buffer was perfused through the chambers at a rate of 1 ml/min at 37 °C using an 8-channel peristaltic pump.” left out, “A 0.4-ml aliquot of each fraction was then transferred to a counting plate, and a scintillation cocktail was added to measure the radioactivity using a Wallac® TriLux 1450 MicroBeta counter (PerkinElmer Life Sciences, Zaventem, Belgium).” left out
as §2

In data set [3] the test system is zebrafish (Danio rerio; strain AB). The data set is described as follows: Zebrafish novel tank test (NTT). The method, then: Adult male and female wild-type zebrafish were treated with the compounds for 20 min in a final volume of 50 ml in a 250-ml treatment beaker one fish at a time. The fish were briefly rinsed in fresh system water, and then immediately transferred to a trapezoidal tank (14.6 cm height x 5.5 cm width x 27.9 cm top length and x 23.6 cm bottom length) filled with 1.5 L system water. The behavior of the fish was monitored for the next 5 min by using the Noldus EthoVision XT system (Wageningen, Netherlands), with the camera placed approximately 1 m from the test tank. The part of the tank filled with water (11.5 cm height) was virtually divided into top, center, and bottom of equal heights (approximately 3.8 cm per segment) for the analysis. The average time spent at the top and bottom portions of the tank was analyzed to determine the anxiety-like behavior of fish. The average total distance travelled and freezing time were calculated to determine the effects of the compounds on the general behavior of fish. Freezing was defined by a complete cessation of movement except for gills and eyes ([Kalueff et al., 2013]). A minimum of 12 fish (6 females and 6 males) per condition were used for the study. The experimenter was blind to the test conditions.
If not, the dose was reduced until no obvious signs of tolerability problems were observed. […] The concentrations were calculated based on the free base molecular weight. Buspirone—a clinical anxiolytic drug used acutely and chronically to investigate the change in the anxiety-like behavior ([Maximino, et al., 2011]; [Maximino, et al., 2013])—was included as a positive control.

The subject of data set [4] is C57Bl/6 mice. The data set is described as follows: Tolerability test (body weight, body temperature, passive signs, manipulation responses). The settings on record: for tolerability: highest dose 10 mg/kg i.p.; for BT (°C) naïve / Manipulations naïve / Passive naïve: baseline; for BW Day 1 / BW Day 2: mean ± SD. On the procedure: In brief, mice were single-housed prior to the test and evaluated for baseline body weight, body temperature, and other parameters. […] On day 1, the mice were i. p. injected with saline (vehicle) or a test compound at 10 ml/kg body weight. Then, body temperature was measured at 15 min, 4 h, and 24 h and body weight on days 1 and 2. Neurological and motor parameters were evaluated at 15 min, 2 h, and 4 h after administration. The list of parameters is provided in Supplementary Figure S1 in Supplementary Material S1.
In addition, within 5 min after the 15-min observation period, mice were placed in open-field chambers for 30 min to determine their general motor activity (distance traveled), ambulatory time, and number of rears. The open-field chambers were made of Plexiglas (27.3 × 27.3 × 20.3 cm; Med Associates Inc, St Albans, VT, United States) surrounded by infrared photobeam sources (16 × 16 × 16 beams). Horizontal activity (distance and time traveled) and vertical activity (number and frequency of rears) were measured by consecutive beam breaks. At the end of each open-field test session, the chambers were thoroughly cleaned with NOLVASAN® solution (Zoetis Services LLC, Parsippany, NJ, United States). Four mice were used per treatment condition. Mice were terminated after completion of the last tolerability observation.
All compounds were diluted in saline, and the pH was adjusted to approximately 7.0 with HCl or NaOH on the day of the experiment. […] The doses were calculated based on the free base molecular weight of the compounds.
For the tolerability tests, passive signs and manipulation responses were analyzed for effects of the treatment by the Kruskal–Wallis test. Body temperature and body weight data were analyzed by two-way repeated measures analysis of variance (ANOVA). The total distance and time traveled and number and frequency of rears in the open-field activity test were analyzed by one-way ANOVA, followed by the Tukey post-hoc test. For the analyses of the zebrafish NTT data, one-way ANOVA was used, followed by Dunnett’s multiple comparison test, if it passed the Shapiro-Wilk normality test. […] An effect was considered significant if p < 0.05. The half maximal effective concentration (EC50) and half-maximal inhibitory concentration (IC50) for the receptor pharmacology and neurotransmitter release assay were determined by using nonlinear regression analysis. Statistical analyses were conducted using GraphPad Prism.

As for `CC(=O)OCC[N+](C)(C)C` [acetylcholine], the EC50 (commonly the concentration needed to bring the measured effect to its halfway point) in data set [1] (hippocampal synaptosomes) was 13.5 µM; in data set [2], 0.27 µM.
Take `O=C1CC2(CCCC2)CC(=O)N1CCCCN1CCN(c2ncccn2)CC1` [buspirone, buspirone hydrochloride]: in data set [3] (100 mg/L), the freezing time entry was “increased” and the total distance traveled result is given as “decreased”. Besides, the “time spent at the top” value in data set [3] (all three doses tested (10, 30, and 100 mg/L)) is given as “increased the time spent at the top”. Besides, the “time spent at the bottom” value in data set [3] (middle two doses (10 and 30 mg/L)) is on record as “reduced the time spent at the bottom”.
As to `O=C(c1ccc(Cl)o1)N1CC2CNCC2C1` (stereo not drawn) [AZD1446, 3-(5-chloro-2-furoyl)-3,7-diazabicyclo[3.3.0]octane], the “change in norepinephrine release” value in data set [1] was “negligible change”. In data set [4], the tolerability result is recorded as “well tolerated”. The EC50 in data set [2] worked out at 8.4 µM.
For `O=C(N[C@H]1CN2CCC1CC2)c1ccc(Cl)cc1` [PNU282987], the “change in norepinephrine release” value in data set [1] is on record as “negligible change”. In addition, in data set [4] (1 mg/kg group), the “BT (°C) naïve” value came to 36.48 ± 0.38 °C, the “Manipulations naïve” value was found to be 2.00 ± 1.63 and the “Passive naïve” value stood at 0.25 ± 0.50. In addition, in data set [4] (1 mg/kg i.p.), the “BT (°C) 15min” value worked out at 38.13 ± 0.15 °C, the “BT (°C) 4hr” value was determined as 36.60 ± 0.18 °C, the “BT (°C) 24hr” value was 36.85 ± 0.66 °C and the “Manipulations 15min” value was 1.25 ± 1.26. Also, in data set [4] (1 mg/kg i.p.), the “Manipulations 2hr” value turned out to be 0.75 ± 0.50, the “Manipulations 4hr” value worked out at 0.75 ± 0.96, the “Passive 15min” value is recorded as 0.50 ± 0.58 and the “Passive 2hr” value is 0.00 ± 0.00. In data set [4] (1 mg/kg i.p.), the “Passive 4hr” value was 0.00 ± 0.00, the “BW Day 1” value is given as 24.03 ± 2.46 and the “BW Day 2” value came out at 23.78 ± 2.61. In data set [4] (3 mg/kg group), the “BT (°C) naïve” value was determined as 36.50 ± 0.24 °C, the “Manipulations naïve” value came out at 0.75 ± 0.96 and the “Passive naïve” value worked out at 0.25 ± 0.50. Moreover, in data set [4] (3 mg/kg i.p.), the “BT (°C) 15min” value came out at 37.85 ± 0.54 °C, the “BT (°C) 4hr” value was 36.63 ± 0.21 °C, the “BT (°C) 24hr” value amounted to 36.40 ± 0.12 °C and the “Manipulations 15min” value was found to be 0.75 ± 0.96. Moreover, in data set [4] (3 mg/kg i.p.), the “Manipulations 2hr” value worked out at 0.50 ± 0.58, the “Manipulations 4hr” value was determined as 0.25 ± 0.50, the “Passive 15min” value came to 0.50 ± 0.58 and the “Passive 2hr” value came to 0.00 ± 0.00. Also, in data set [4] (3 mg/kg i.p.), the “Passive 4hr” value was 0.00 ± 0.00, the “BW Day 1” value is listed as 23.38 ± 0.54 and the “BW Day 2” value is 23.47 ± 0.57. In data set [4] (10 mg/kg group), the “BT (°C) naïve” value is 36.73 ± 1.13 °C, the “Manipulations naïve” value turned out to be 1.25 ± 0.96 and the “Passive naïve” value is 0.25 ± 0.50. In data set [4] (10 mg/kg i.p.), the “BT (°C) 15min” value was 37.73 ± 0.46 °C, the “BT (°C) 4hr” value is 36.83 ± 0.59 °C, the “BT (°C) 24hr” value amounted to 36.10 ± 0.52 °C and the “Manipulations 15min” value is recorded as 0.50 ± 0.58. Besides, in data set [4] (10 mg/kg i.p.), the “Manipulations 2hr” value was 0.25 ± 0.50, the “Manipulations 4hr” value was 0.50 ± 0.58, the “Passive 15min” value came to 0.00 ± 0.00 and the “Passive 2hr” value came out at 0.00 ± 0.00. Also, in data set [4] (10 mg/kg i.p.), the “Passive 4hr” value was 0.00 ± 0.00, the “BW Day 1” value stood at 23.62 ± 1.10 and the “BW Day 2” value was 22.94 ± 1.25. In addition, the tolerability result in data set [4] was “well tolerated”. In data set [2] (at higher concentrations), the dopamine release is given as 20–30%.
